Entries after “also recorded” stand apart in the source; their conditions may differ.

Series [1] can be described thus: pharmacokinetics after a single intravenous dose in cynomolgus monkey. The settings on record: in vivo, 2.5 mg/kg.
Series [2] deals with neointimal formation in porcine coronary arteries containing stents. As to the kind of experiment: porcine coronary stent model, histomorphometry at 28 days. It is filed as in vivo. The text has this:
The control stents are polymer-coated without drugs. This is important, for the polymer itself must not stimulate neointimal hyperplasia to a substantial degree. As the eluted drug disappears, an inflammatory response to the polymer could conceivably result in a late “catch-up phenomenon” where the restenosis process is not stopped, but instead slowed. This phenomenon would result in restenosis at late dates in human subjects.
Stems were implanted in two blood vessels in each pig. Pigs used in this model were generally 2-4 months old and weighed 30-40 kg. Two coronary stents were thus implanted in each pig by visually assessing a “normal” stent:artery ratio of 1.1-1.2.
Beginning on the day of the procedure, pigs were given oral aspirin (325 mg daily) and continued for the remainder of their course. General anesthesia was achieved by means of intramuscular injection followed by intravenous ketamine (30 mg/kg) and xylazine (3 mg/kg). Additional medication at the time of induction included atropine (1 mg) and flocillin (1 g) administered intramuscularly. During the stenting procedure, an intraarterial bolus of 10,000 units of heparin was administered.
Arterial access was obtained by cutdown on the right external carotid and placement of an 8F sheath. After the procedure, the animals were maintained on a normal diet without cholesterol or other special supplementation.
The BiodivYsio stent was used with nominal vessel target size of 3.0 mm. Two coronary arteries per pig were assigned at random to deployment of the stents. The stent was either a drug eluting stent (polymer plus drug stent) or a stent coated with a polymer only (polymer only stent). The stents were delivered by means of standard guide catheters and wires. The stent balloons were inflated to appropriate sizes for less than 30 seconds.
Each pig had one polymer only stent and one polymer plus drug stent placed in separate coronary arteries, so that each pig would have one stent for drug and one for control. A sample size of 20 pigs total was chosen to detect a projected difference in neointimal thickness of 0.2 mm with a standard deviation of 0.15 mm, at a power of 0.95 and […] 0.02.
Animals were euthanized at 28 days for histopathologic examination and quantification. Following removal of the heart from the perfusion pump system, the left atrial appendage was removed for access to the proximal coronary arteries. Coronary arterial segments with injuries were dissected free of the epicardium. Segments containing lesions were isolated, thereby allowing sufficient tissue to contain uninvolved blood vessel at either end. […]
The severity of vessel injury and the neointimal response were measured by calibrated digital microscopy. […]

The nature of series [3]: release of drug from PC polymer-coated 316 L stainless steel coupons. To be noted: PC polymer-coated 316 L coupon. Format: physicochemical. The text has this: Rubber septa from lids from HPLC vials were removed from the vials and placed into glass vials so that the “Teflon” side faced up. These septa served as supports for the test samples. The test samples were 316 L, stainless steel coupons that had been previously coated with a biocompatible polymer containing phosphorylcholine side groups (PC polymer). Coronary stents are commonly made of 316 L stainless steel and can be coated with the PC polymer to provide a depot site for loading drugs. The coated coupons, which serve to simulate stents, were placed onto the septa. By using a glass Hamilton Syringe, a solution of A-179578 and ethanol (10 μl) was applied to the surface of each coupon. The solution contained A-179578 (30.6 mg) dissolved in 100% ethanol (3.0 ml). The syringe was cleaned with ethanol between each application. The cap to the glass vial was placed on the vial loosely, thereby assuring proper ventilation. The coupon was allowed to dry for a minimum of 1.5 hours. Twelve (12) coupons were loaded in this way, six being used to determine the average amount of drug loaded onto the device and six being used to measure the time needed to release the drug from the devices.
The coupon was placed onto a 5210 Branson sonicator for one hour. The coupon was then removed from the solution, and the solution was assayed by HPLC.
The time release studies were performed by immersing and removing the individual coupons from fresh aliquots (10.0 ml) of 0.01 M phosphate buffer at a pH of 6.0 at each of the following time intervals; 5, 15, 30 and 60 minutes. For the remaining time points of 120, 180, 240, 300, 360 minutes, volumes of 5.0 ml of buffer were used. To facilitate mixing during the drug release phase, the samples were placed onto a Eberbach shaker set at low speed. All solution aliquots were assayed by HPLC after the testing of the last sample was completed.
The HPLC analysis was performed with a Hewlett Packard series 1100 instrument having the following settings: Injection Volume is 100 μl; Acquisition Time is 40 minutes; Flow Rate is 1.0 ml/min; Column Temperature is 40 degrees Celsius; Wavelength is 278 nm; Mobile Phase is 65% Acetonitrile/35% H20; and Column is YMC ODS-A S5 μm, 4.6×250 mm (Part No. Al2052546WT).

The nature of series [4]: loading and release of drug from 15 mm BiodivYsio drug delivery stents. It is filed as physicochemical. To be noted: 15 mm BiodivYsio stent. On the procedure: Twelve individual polymer-coated stents were placed on fixtures designed to hold the stent in a vertical position and the stents were immersed vertically in the drug solution for five minutes. The stents and fixtures were removed from the vials and excess drug solution was blotted away by contacting the stents with an absorbant material. The stents were then allowed to dry in air for 30 minutes in an inverted vertical position.
The stents were removed from the fixtures, and each stent was placed into 50/50 acetonitrile/phosphate buffer (pH 5.1, 2.0 ml) and sonicated for one hour. The stems were removed from the solution and solutions were assayed for concentration of drug, which allowed calculation of the amount of drug originally on the stents. This method was independently shown to remove at least 95% of the drug from the stent coating. On average, the stents contained 60 micrograms of drug±20 micrograms.
The drug-loaded stents were placed on the fixtures and placed into 0.01 M phosphate buffer (pH=6.0, 1.9 ml) in individual vials. These samples were placed onto an Eberbach shaker set at low speed to provide back-and-forth agitation. To avoid approaching drug saturation in the buffer, the stents were transferred periodically to fresh buffer vials at the following points: 15, 30, 45, 60, 120, 135, 150, 165, 180, 240, 390 minutes. The dissolution buffer vials were assayed by HPLC for the drug concentration at the end of the drug release period studied. The data, represented as % cumulative release of the drug as a function of time, is shown in tabular form below: […]

For series [5], the system named is neointima formation in the coronary arteries of adult miniature swine. Description: swine safety and efficacy study of drug dosages on in-stent neointima formation. Format: in vivo, Yucatan miniature swine. On the procedure: The purpose of this example was to evaluate the safety and efficacy of different drug dosages on neointima formation. Drug was delivered from the BiodivYsio OC stent (15 mm) coated with AST-578. In-stent neointima formation was measured at […]; 3 days, 1 month, and 3 months in the coronary arteries of adult miniature swine. Forty (40) animals were studied at each time interval (10 animals per dose). Each animal received one drug-coated stent and one control stent. The control stent contained no drug.
Potential local tissue toxicity was assessed at all time intervals by examining histopathologic changes in the stented region, adjacent coronary segments, perivascular tissue, and subserved myocardium. The mortality, angiographic implant and restudy data, histomorphometry data, and stent site histopathology were studied.

The mark [6] stands for this setting: porcine coronary arteries, 28 days.

A word on the AUC: it is concentration integrated over time. In series [1], “40-epi-N-[2′-pyridone]-rapamycin [Example 2-pyridone]” displayed an AUC of 2550 ng·h/mL.

For `COC1CC2CCC(C)C(O)(O2)C(=O)C(=O)N2CCCCC2C(=O)OC(C(C)CC2CCC(n3cnnn3)C(OC)C2)CC(=O)C(C)C=C(C)C(O)C(OC)C(=O)C(C)CC(C)C=CC=CC=C1C` (centres unmarked) [ABT-578, 42-(1-tetrazolyl)-rapamycin], in series [2] (setting [6]), the “lumen area vs polymer only stent” value is recorded as “greater lumen area”. The “neointimal area vs polymer only stent” value in series [2] (setting [6]) was “lower neointimal area”. Also, the “neointimal thickness vs polymer only stent” value in series [2] (setting [6]) was “lower neointimal thickness”. In addition, the “neointimal hyperplasia” value in series [2] (stent with polymer in porcine coronary artery) was “reduction in neointimal hyperplasia”. The “Percent Release” value was found to be 0.00% in series [3] (0.01 M phosphate buffer pH 6.0, 0.00 min); 1.87% in series [3] (0.01 M phosphate buffer pH 6.0, 5.00 min); 2.97% in series [3] (0.01 M phosphate buffer pH 6.0, 15.00 min); 3.24% in series [3] (0.01 M phosphate buffer pH 6.0, 30.00 min); 3.29% in series [3] (0.01 M phosphate buffer pH 6.0, 60.00 min); 4.36% in series [3] (0.01 M phosphate buffer pH 6.0, 180.00 min). In addition, the “Percent Release” value in series [3] (0.01 M phosphate buffer pH 6.0, 240.00 min) is 4.37%; in series [3] (0.01 M phosphate buffer pH 6.0, 300.00 min) it was 6.34%; in series [3] (0.01 M phosphate buffer pH 6.0, 360.00 min), 7.88%.

As to `CO[C@H]1C[C@@H]2CC[C@@H](C)[C@@](O)(O2)C(=O)C(=O)N2CCCC[C@H]2C(=O)O[C@H]([C@H](C)C[C@@H]2CC[C@H](n3cnnn3)[C@H](OC)C2)CC(=O)[C@H](C)/C=C(\C)[C@@H](O)[C@@H](OC)C(=O)[C@H](C)C[C@H](C)/C=C/C=C/C=C/1C` [ABT-578, 42-(1-tetrazolyl)-rapamycin], the “% Cumulative Release of Drug” value in series [4] (0.01 M phosphate buffer pH 6.0, 15 min) is listed as 0.3%; in series [4] (0.01 M phosphate buffer pH 6.0, 30 min), 1.1%; in series [4] (0.01 M phosphate buffer pH 6.0, 45 min), 2.1%; in series [4] (0.01 M phosphate buffer pH 6.0, 60 min), 3.2%; in series [4] (0.01 M phosphate buffer pH 6.0, 120 min) it was 4.3%; in series [4] (0.01 M phosphate buffer pH 6.0, 135 min) it was 5.9%. Also, the “% Cumulative Release of Drug” value in series [4] (0.01 M phosphate buffer pH 6.0, 150 min) is reported as 6.3%; in series [4] (0.01 M phosphate buffer pH 6.0, 165 min) it was 6.8%; in series [4] (0.01 M phosphate buffer pH 6.0, 180 min), 7.4%. In series [5] (any dose group up to approximately 27 μg/mm stent length, any time interval), the “local coronary arterial wall toxicity: medial necrosis or stent malapposition” value is “no local coronary arterial wall toxicity”. Further, the “histologic % stenosis vs control” value in series [5] (one month, dose group 3) is given as “tendency towards decreased”. For the same compound, the “absolute intima area vs control” value in series [5] (one month, dose groups 3 and 4) is given as “trends for decreases”. Also, the “intima thickness vs control” value in series [5] (one month, dose groups 3 and 4) is on record as “trends for decreases”. The “Intima area normalized to injury score vs control” value in series [5] (one month, dose groups 3 and 4 (10 and 27 μg/mm)) is given as “significantly decreased”. For the same compound, the “neointima formation in stented coronary arteries” value in series [5] (one month, locally eluted from stent) is reported as “significant inhibitory effect; also recorded: reduced in-stent neointima formation”. Also, the “extent of endothelial recovery over the stent struts” value in series [5] (three days after implant, all dosages, scanning electron microscopy) is “did not appear retarded”. Besides, the “persistent inhibitory effect on neointima” value in series [5] (three months) is “weak tendency”.

As to `COC1CC2CCC(C)C(O)(O2)C(=O)C(=O)N2CCCCC2C(=O)OC(C(C)CC2CCC(n3ccc(=O)cc3)C(OC)C2)CC(=O)C(C)C=C(C)C(O)C(OC)C(=O)C(C)CC(C)C=CC=CC=C1C` (stereo not drawn) [Example 4-pyridone, 40-epi-N-[4′-pyridone]-rapamycin], the AUC in series [1] was 5590 ng·h/mL.

Source of the values: patent US8034926B2 (Abbott Laboratories, priority 2007, dated 2011).
